In ChEMBL document CHEMBL1139168, “Pyrrolidino-tetrahydroisoquinolines as potent dual H3 antagonist and serotonin transporter inhibitors” (Bioorg Med Chem Lett, 2007):

What was measured:
[1] = target: Sodium-dependent serotonin transporter (Rattus norvegicus, UniProt P31652); test: Displacement of [3H]citalopram from rat brain SERT
Histamine H3 receptor = Histamine H3 receptor (Homo sapiens, UniProt Q9Y5N1); test: Binding affinity at human histamine H3 receptor expressed in SK-N-MC cells
Mus musculus [2] = test: Inhibition of SERT in 5-hydroxytryptophan potentiated head twitch mouse model assessed as increase in head twitch response at 3 mg/kg, ip relative to control; assay type: functional; design: scale not given: the % may be the effect or the level left; settings: route intraperitoneal
Mus musculus [3] = test: Inhibition of SERT in ip dosed 5-hydroxytryptophan potentiated head twitch mouse model assessed as increase in head twitches after 24 hrs; assay type: functional, organism-based
[4] = Cmax in mouse brain at 30 mg/kg, ip
Rattus norvegicus [5] = test: Increase in extracellular serotonin level in rat brain frontal cortex at 1 mg/kg, ip after 8 hrs relative to basal level; assay type: functional; settings: route intraperitoneal
[6] = Half life in rat at 1 mg/kg, iv or 10 mg/kg, po; assay type: ADME, organism-based; settings: in vivo
Rattus norvegicus [7] = test: Increase in extracellular dopamine level in rat brain frontal cortex at 1 mg/kg, ip after 24 hrs relative to basal level; assay type: functional; settings: route intraperitoneal
Mus musculus [8] = test: Inhibition of SERT in 5-hydroxytryptophan potentiated head twitch mouse model assessed as increase in head twitch response at 10 mg/kg, ip relative to control; assay type: functional; design: scale not given: the % may be the effect or the level left; settings: route intraperitoneal
Rattus norvegicus [9] = test: Increase in extracellular dopamine level in rat brain frontal cortex at 1 mg/kg, ip after 8 hrs relative to basal level; assay type: functional; settings: route intraperitoneal
[10] = Bioavailability in rat 10 mg/kg, po; assay type: ADME, organism-based; settings: in vivo
Rattus norvegicus [11] = test: Increase in extracellular serotonin level in rat brain frontal cortex at 1 mg/kg, ip after 24 hrs relative to basal level; assay type: functional; settings: route intraperitoneal

Sequence of Histamine H3 receptor (Q9Y5N1 whole entry): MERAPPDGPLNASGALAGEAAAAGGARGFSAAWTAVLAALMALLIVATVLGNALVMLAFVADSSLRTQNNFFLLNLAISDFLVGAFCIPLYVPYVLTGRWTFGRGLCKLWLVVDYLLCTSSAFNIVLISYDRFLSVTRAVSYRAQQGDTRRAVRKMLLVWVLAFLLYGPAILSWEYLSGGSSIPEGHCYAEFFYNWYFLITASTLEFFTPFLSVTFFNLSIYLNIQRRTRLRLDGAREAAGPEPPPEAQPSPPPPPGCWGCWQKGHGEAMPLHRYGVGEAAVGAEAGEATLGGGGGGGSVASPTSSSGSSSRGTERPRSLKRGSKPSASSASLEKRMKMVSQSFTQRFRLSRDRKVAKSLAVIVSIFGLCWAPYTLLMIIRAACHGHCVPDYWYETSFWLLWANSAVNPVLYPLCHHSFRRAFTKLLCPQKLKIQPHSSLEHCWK
Sequence of Sodium-dependent serotonin transporter (P31652 whole entry): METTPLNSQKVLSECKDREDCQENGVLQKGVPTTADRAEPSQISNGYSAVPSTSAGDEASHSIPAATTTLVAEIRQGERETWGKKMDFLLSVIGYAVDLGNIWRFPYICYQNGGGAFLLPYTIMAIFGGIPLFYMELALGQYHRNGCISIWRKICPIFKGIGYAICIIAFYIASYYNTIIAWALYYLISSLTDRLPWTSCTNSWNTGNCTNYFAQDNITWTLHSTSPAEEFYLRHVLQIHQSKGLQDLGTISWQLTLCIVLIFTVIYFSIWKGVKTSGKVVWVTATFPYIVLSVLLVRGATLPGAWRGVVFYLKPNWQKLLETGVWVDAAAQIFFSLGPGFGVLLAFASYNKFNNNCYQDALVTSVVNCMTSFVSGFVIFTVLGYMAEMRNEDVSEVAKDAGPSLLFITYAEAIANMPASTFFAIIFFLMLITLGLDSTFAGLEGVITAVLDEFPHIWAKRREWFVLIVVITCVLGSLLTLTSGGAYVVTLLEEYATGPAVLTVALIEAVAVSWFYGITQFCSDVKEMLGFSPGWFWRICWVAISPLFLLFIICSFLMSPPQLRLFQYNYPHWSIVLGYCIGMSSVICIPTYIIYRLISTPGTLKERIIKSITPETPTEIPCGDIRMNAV

Row | Structure (SMILES) | Ki [1] | Ki (Histamine H3 receptor) | also measured
1 | COc1cccc(C2CN3CCCC3c3cc(OCCCN4CCCCC4)ccc32)c1 (racemic) | 4.7 nM | 1.7 nM | 
2 | COc1ccccc1C1CN2CCCC2c2cc(OCCCN3CCCCC3)ccc21 (racemic) | 14 nM | 1.3 nM | 
3 | Oc1ccc(C2CN3CCCC3c3cc(OCCCN4CCCCC4)ccc32)cc1 (racemic) | 9.3 nM | 1.7 nM | 
4 | Oc1ccccc1C1CN2CCCC2c2cc(OCCCN3CCCCC3)ccc21 (racemic) | 20.7 nM | 3.7 nM | 
5 | CN(C)c1ccc(C2CN3CCCC3c3cc(OCCCN4CCCCC4)ccc32)cc1 (racemic) | 3.3 nM | 1.6 nM | 
6 | FC(F)(F)c1ccc(C2CN3CCCC3c3cc(OCCCN4CCCCC4)ccc32)cc1 (racemic) | 26.7 nM | 4.7 nM | 
7 | c1ccc(C2CN3CCCC3c3cc(OCCCN4CCCCC4)ccc32)cc1 (racemic) | 2 nM | 0.9 nM | 
8 | CSc1ccc(C2CN3CCCC3c3cc(OCCCN4CCCCC4)ccc32)cc1 (racemic) | 3.3 nM | 2.5 nM | 
9 | Cc1ccc(C2CN3CCCC3c3cc(OCCCN4CCCCC4)ccc32)cc1 (racemic) | 3 nM | 2 nM | 
10 | C#Cc1cccc(C2CN3CCCC3c3cc(OCCCN4CCCCC4)ccc32)c1 (racemic) | 8.7 nM | 2 nM | 
11 | Clc1ccccc1C1CN2CCCC2c2cc(OCCCN3CCCCC3)ccc21 (racemic) | 8.7 nM | 2.3 nM | 
12 | FC(F)(F)c1cccc(C2CN3CCCC3c3cc(OCCCN4CCCCC4)ccc32)c1 (racemic) | 21.7 nM | 2 nM | 
13 | Clc1ccc(C2CN3CCCC3c3cc(OCCCN4CCCCC4)ccc32)cc1 (racemic) | 6.3 nM | 2.2 nM | 
14 | Fc1ccc(C2CN3CCCC3c3cc(OCCCN4CCCCC4)ccc32)cc1 (racemic) | 3.7 nM | 1.7 nM | 
15 | N#Cc1ccc(C2CN3CCCC3c3cc(OCCCN4CCCCC4)ccc32)cc1 (racemic) | 24.7 nM | 1.2 nM | 
16 | Oc1cccc(C2CN3CCCC3c3cc(OCCCN4CCCCC4)ccc32)c1 (racemic) | 1.3 nM | 0.7 nM | 
17 | FC(F)(F)Oc1ccc(C2CN3CCCC3c3cc(OCCCN4CCCCC4)ccc32)cc1 (racemic) | 11 nM | 4 nM | 
18 | O=[N+]([O-])c1ccc(C2CN3CCCC3c3cc(OCCCN4CCCCC4)ccc32)cc1 (racemic) | 5.3 nM | 1.3 nM | 
19 | COc1ccc(C2CN3CCCC3c3cc(OCCCN4CCCCC4)ccc32)cc1 (racemic) |  |  | Activity (Mus musculus [2]): 384%; Activity (Mus musculus [3]): Dose-dependent effect; Cmax [4]: 1280 nM; Activity (Rattus norvegicus [5]): 500%; half-life [6]: 15.7 h; Activity (Rattus norvegicus [7]): 300%; Activity (Mus musculus [8]): 661%; Activity (Rattus norvegicus [9]): 300%; bioavailability [10]: 16%; Activity (Rattus norvegicus [11]): 500%
20 | Clc1cccc(C2CN3CCCC3c3cc(OCCCN4CCCCC4)ccc32)c1 (racemic) | 4 nM | 1.2 nM | 
21 | C#Cc1ccc(C2CN3CCCC3c3cc(OCCCN4CCCCC4)ccc32)cc1 (racemic) | 7 nM | 4 nM | 
